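Tested at 5 concentrations; 48 h exposure; 96-well plates; endpoints linearly interpolated, else capped at highest concentration. Definition used: TGI = concentration required for complete inhibition of growth.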
What was measured:
Experiment in all cases: inhibition of tumour cell growth, NCI panel, 48 h
786-0 renal = tested on: 786-0 renal
A549 NSCLC = tested on: A549 NSCLC
ACHN renal = tested on: ACHN renal
BT-549 breast = tested on: BT-549 breast
CAKI-1 renal = tested on: CAKI-1 renal
CCRF-CEM leukemia = tested on: CCRF-CEM leukemia
COLO 205 colon = tested on: COLO 205 colon
DU-145 prostate = tested on: DU-145 prostate
EKVX NSCLC = tested on: EKVX NSCLC
HCC-2998 colon = tested on: HCC-2998 colon
HCT-116 colon = tested on: HCT-116 colon
HCT-15 colon = tested on: HCT-15 colon
HL-60(TB) leukemia = tested on: HL-60(TB) leukemia
HOP-62 NSCLC = tested on: HOP-62 NSCLC
HOP-92 NSCLC = tested on: HOP-92 NSCLC
HS 578T breast = tested on: HS 578T breast
HT29 colon = tested on: HT29 colon
IGROV1 ovarian = tested on: IGROV1 ovarian
K-562 leukemia = tested on: K-562 leukemia
KM12 colon = tested on: KM12 colon
LOX IMVI melanoma = tested on: LOX IMVI melanoma
M14 melanoma = tested on: M14 melanoma
MALME-3M melanoma = tested on: MALME-3M melanoma
MCF7 breast = tested on: MCF7 breast
MDA-MB-231 breast = tested on: MDA-MB-231 breast
MDA-MB-435 = tested on: MDA-MB-435
MDA-N = tested on: MDA-N
MOLT-4 leukemia = tested on: MOLT-4 leukemia
NCI-H226 lung = tested on: NCI-H226 lung
NCI-H460 lung = tested on: NCI-H460 lung
NCI-H522 lung = tested on: NCI-H522 lung
NCI/ADR-RES ovarian = tested on: NCI/ADR-RES ovarian
OVCAR-4 ovarian = tested on: OVCAR-4 ovarian
OVCAR-5 ovarian = tested on: OVCAR-5 ovarian
OVCAR-8 ovarian = tested on: OVCAR-8 ovarian
PC-3 prostate = tested on: PC-3 prostate
RPMI-8226 leukemia = tested on: RPMI-8226 leukemia
RXF 393 renal = tested on: RXF 393 renal
SF-268 CNS = tested on: SF-268 CNS
SF-295 CNS = tested on: SF-295 CNS
SF-539 CNS = tested on: SF-539 CNS
SK-MEL-2 melanoma = tested on: SK-MEL-2 melanoma
SK-MEL-28 melanoma = tested on: SK-MEL-28 melanoma
SK-MEL-5 melanoma = tested on: SK-MEL-5 melanoma
SK-OV-3 ovarian = tested on: SK-OV-3 ovarian
SN12C renal = tested on: SN12C renal
SNB-19 CNS = tested on: SNB-19 CNS
SNB-75 CNS = tested on: SNB-75 CNS
SR leukemia = tested on: SR leukemia
SW-620 colon = tested on: SW-620 colon
T-47D breast = tested on: T-47D breast
TK-10 renal = tested on: TK-10 renal
U251 CNS = tested on: U251 CNS
UACC-257 melanoma = tested on: UACC-257 melanoma
UACC-62 melanoma = tested on: UACC-62 melanoma
UO-31 renal = tested on: UO-31 renal
NCI-H23 lung = tested on: NCI-H23 lung
OVCAR-3 ovarian = tested on: OVCAR-3 ovarian
A498 renal = tested on: A498 renal

Measured: TGI

N#C/C(=C\c1ccc(Cl)cc1)c1nc(-c2cc3ccccc3oc2=O)cs1
93.3 µM: U251 CNS
58.2 µM: HOP-62 NSCLC
51.3 µM: HOP-92 NSCLC
37.7 µM: HS 578T breast
85.3 µM: UACC-62 melanoma
50.1 µM: NCI-H522 lung
94.6 µM: TK-10 renal
47.8 µM: MDA-MB-231 breast
31.8 µM: BT-549 breast
not listed: NCI-H23 lung | OVCAR-3 ovarian | A498 renal
> 100 µM: all other assays above

Cc1noc(NS(=O)(=O)c2ccc(NC(=O)c3ccc4[nH]c5ccccc5c(=O)c4c3)cc2)c1C
56.5 µM: LOX IMVI melanoma
76.2 µM: NCI-H522 lung
62.2 µM: SF-539 CNS
81.5 µM: K-562 leukemia
67.3 µM: CCRF-CEM leukemia
66.8 µM: HL-60(TB) leukemia
67.6 µM: MOLT-4 leukemia
77.8 µM: OVCAR-3 ovarian
66.5 µM: MCF7 breast
85.2 µM: SR leukemia
65.2 µM: HCC-2998 colon
63.2 µM: T-47D breast
98 µM: RXF 393 renal
not listed: A498 renal
> 100 µM: all other assays above

Cn1ncc(NCCn2cnc3c2c(=O)n(C)c(=O)n3C)c(Cl)c1=O
not listed: SNB-75 CNS
> 100 µM: all other assays above

CC(C)(C)OC(=O)CCC1NC(=O)[C@@H]2Cc3c([nH]c4ccccc34)C(C3CCCCC3)N2C1=O (some centres not stated)
56.5 µM: RPMI-8226 leukemia
78 µM: KM12 colon
61.1 µM: SR leukemia
74.2 µM: PC-3 prostate
38.9 µM: COLO 205 colon
61.3 µM: MOLT-4 leukemia
99.7 µM: OVCAR-3 ovarian
65.6 µM: SN12C renal
40.2 µM: HT29 colon
76.6 µM: MDA-MB-231 breast
41.9 µM: HL-60(TB) leukemia
65.5 µM: SK-MEL-2 melanoma
80.3 µM: MALME-3M melanoma
66.2 µM: SF-295 CNS
78.3 µM: HOP-92 NSCLC
not listed: CCRF-CEM leukemia | HCC-2998 colon | NCI-H460 lung | SF-539 CNS | SNB-75 CNS
> 100 µM: all other assays above

CCN1C(Cl)=NS(=O)(=O)c2ccccc21
37.9 µM: SN12C renal
32.5 µM: COLO 205 colon
64.7 µM: NCI-H460 lung
25.6 µM: UACC-62 melanoma
70.1 µM: HOP-62 NSCLC
81 µM: CCRF-CEM leukemia
80.8 µM: UACC-257 melanoma
44 µM: BT-549 breast
45.7 µM: HCC-2998 colon
78.6 µM: T-47D breast
32.8 µM: M14 melanoma
76 µM: OVCAR-5 ovarian
53.7 µM: EKVX NSCLC
47.8 µM: OVCAR-4 ovarian
35.9 µM: SF-539 CNS
33.1 µM: SK-MEL-5 melanoma
52.5 µM: NCI-H23 lung
35.2 µM: HCT-15 colon
87.2 µM: HL-60(TB) leukemia
34.8 µM: OVCAR-3 ovarian
32.1 µM: UO-31 renal
34.1 µM: ACHN renal
32.2 µM: RXF 393 renal
4.31 µM: CAKI-1 renal
24.6 µM: NCI-H522 lung
44.6 µM: A498 renal
64.6 µM: 786-0 renal
65.1 µM: MDA-MB-231 breast
36.7 µM: LOX IMVI melanoma
85.2 µM: NCI/ADR-RES ovarian
74 µM: HCT-116 colon
37 µM: TK-10 renal
42.1 µM: HOP-92 NSCLC
55.7 µM: NCI-H226 lung
39.3 µM: K-562 leukemia
not listed: MALME-3M melanoma | RPMI-8226 leukemia | SNB-75 CNS
> 100 µM: all other assays above

From PubChem BioAssay (NCI)
